For assay [1], the system named is phosphorylation of Akt at Serine 473 in U87 MG cells. The assay is described as follows: pAkt AlphaScreen (U87 Cell). As to conditions: Homo sapiens, U-87 MG, 2 h, 2 h compound, pAkt Ser473 AlphaScreen. It counts as cell-based.
The test system of assay [2] is Akt phosphorylation at Ser473 in HCT116 cells. The assay is described as follows: Cell-based phospho-AKT Ser473 assay (HCT116 Cell), MSD sandwich immunoassay.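 Note: IGF-1 added at 100 ng/mL for 15 min after compound treatment, electrochemiluminescent readout of phospho-Akt, DMSO-only wells define maximum signal, IC50 reflects inhibition of phosphorylation.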 The settings on record: Homo sapiens, HCT-116, 2 h, read-out: HCT116 Cell IC50, HCT116 cells, 2 h compound, IGF-1 stimulation, pAkt Ser473.
Source text: This assay determines the ability of a compound to inhibit the phosphorylation of Serine 472 in Akt using a MSD based sandwich immunoassay (Meso Scale Detection, Meso Scale Discovery (MSD), Gaithersburg, Md.). HCT116 human colon carcinoma cell lines can be grown in McCoy's 5A growth medium (GIBCO, Carlsbad, Calif.) containing 10% FBS (GIBCO, Carlsbad, Calif.) and X1 Penicillin-streptomycin-glutamine (GIBCO, Carlsbad, Calif.). Prior to the assay, cells can be detached from the culture flask with trypsin, and re-suspended in complete media to give a final concentration of 1.6×10^5 cells per mL. Aliquots (100 μl) of the HCT116 cell suspension can be seeded into each well of a 96 well tissue culture plate to give a final density of 16,000 cells per well. Cells can then be incubated overnight at 37° C.
The following day the cells can be treated with serially diluted test compounds and incubated for 2 hours at 37° C. The culture media on the HCT 116 cells can be replaced with 189 μL McCoys media, supplemented with 0.1% BSA (ICN Biomedicals, Inc., Costa Mesa, Calif.). […] Aliquots (1 μL) of serially-diluted compounds can be transferred to 96 well tissue culture plates containing the HCT 116 cells. […] As a maximum response control, wells can contain 0.5% DMSO in place of compound. The plates can be mixed at 700 rpm for 2 min to ensure even distribution of the test compound and incubated for 2 hours at 37° C. Cells can then be stimulated with insulin-like growth factor 1 (Sigma, St Louis, Mo.) at final concentration of 100 ng/mL for 15 minutes at 37° C. The media can then be removed and the cells treated with 80 μL cell-lysis buffer (MSD) containing a cocktail of protease and phosphatase inhibitors for one hour at 4° C.
25 μL Cell lysate can then be transferred to pre-blocked MSD assay plates pre-coated with a capture antibody specific for Akt, and the plates can be incubated for 2 hours at room temperature. The cell lysates can then be removed and plates can then be washed four times with 200 μl per well of Tris wash buffer (500 mM Tris, PH 7.5, 1.5 M NaCl, 0.2% Tween-20). Subsequently cells can be incubated for 1 hour at room temperature with a 25 μL solution containing the detection antibody, anti-phospho Akt (Ser 473) labeled with an electrochemiluminescent compound (Meso Scale Discovery SULPHO-TAG™ label, MSD, Gaithersburg, Md.). The detection antibody can be removed and plates can then be washed four times with 200 μL per well of Tris wash buffer. An aliquot of 150 μL of diluted MSD read buffer can then be applied to each well, and the electrochemiluminescent signal can be measured using a MSD SECTOR™ plate reader (Meso Scale Discovery, Gaithersburg, Md.). This instrument measures the intensity of emitted light to determine a quantitative measure of phosphorylated Akt in each well. The dose-response data obtained with each compound can be analyzed and the IC50 inhibition of Akt phosphorylation at Ser473 can be calculated.
A further assay concerns the target T1, PI3Kα (Homo sapiens, UniProt P42336).
T1 construct: Full length p110 subunits of PI3K α, β and δ, N-terminally labeled with polyHis tag; polyHis (N); made in house; host or cells: Sf9 insect cells (baculovirus)
Put plainly: In vitro PI3 kinase enzyme assay (PI3K ATPLoss). The settings on record: recombinant p110α/p85, residual ATP by bioluminescence. It is filed as biochemical.

T1 sequence (P42336 whole entry, species assumed): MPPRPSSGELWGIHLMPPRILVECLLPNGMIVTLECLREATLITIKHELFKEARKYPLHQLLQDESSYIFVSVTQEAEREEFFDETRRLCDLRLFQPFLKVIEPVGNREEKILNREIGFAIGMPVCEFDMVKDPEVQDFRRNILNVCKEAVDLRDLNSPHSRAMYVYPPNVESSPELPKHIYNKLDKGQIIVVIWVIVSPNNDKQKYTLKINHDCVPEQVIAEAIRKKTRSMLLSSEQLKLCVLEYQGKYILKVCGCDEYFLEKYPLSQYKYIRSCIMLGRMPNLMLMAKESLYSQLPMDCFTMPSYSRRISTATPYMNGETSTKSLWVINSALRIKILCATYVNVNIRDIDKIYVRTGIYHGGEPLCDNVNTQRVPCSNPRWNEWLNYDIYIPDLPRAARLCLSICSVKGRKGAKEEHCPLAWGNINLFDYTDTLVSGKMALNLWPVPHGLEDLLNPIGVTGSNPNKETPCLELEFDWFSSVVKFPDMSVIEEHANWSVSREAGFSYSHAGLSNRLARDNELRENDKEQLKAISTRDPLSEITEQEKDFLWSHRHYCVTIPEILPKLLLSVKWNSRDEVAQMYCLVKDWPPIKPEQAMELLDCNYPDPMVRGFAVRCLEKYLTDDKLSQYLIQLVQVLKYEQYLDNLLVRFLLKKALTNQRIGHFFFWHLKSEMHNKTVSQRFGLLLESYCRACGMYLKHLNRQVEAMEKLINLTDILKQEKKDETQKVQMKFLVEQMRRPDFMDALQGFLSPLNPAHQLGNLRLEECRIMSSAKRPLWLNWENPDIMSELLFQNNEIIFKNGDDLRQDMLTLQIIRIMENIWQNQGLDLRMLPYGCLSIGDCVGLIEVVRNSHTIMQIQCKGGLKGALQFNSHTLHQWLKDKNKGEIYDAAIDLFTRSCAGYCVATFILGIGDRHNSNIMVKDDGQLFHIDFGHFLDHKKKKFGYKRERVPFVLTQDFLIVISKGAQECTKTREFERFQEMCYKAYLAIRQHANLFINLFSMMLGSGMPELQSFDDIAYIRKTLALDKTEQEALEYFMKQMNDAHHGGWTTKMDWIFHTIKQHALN
T1 sequence (P27986 whole entry partner, species assumed): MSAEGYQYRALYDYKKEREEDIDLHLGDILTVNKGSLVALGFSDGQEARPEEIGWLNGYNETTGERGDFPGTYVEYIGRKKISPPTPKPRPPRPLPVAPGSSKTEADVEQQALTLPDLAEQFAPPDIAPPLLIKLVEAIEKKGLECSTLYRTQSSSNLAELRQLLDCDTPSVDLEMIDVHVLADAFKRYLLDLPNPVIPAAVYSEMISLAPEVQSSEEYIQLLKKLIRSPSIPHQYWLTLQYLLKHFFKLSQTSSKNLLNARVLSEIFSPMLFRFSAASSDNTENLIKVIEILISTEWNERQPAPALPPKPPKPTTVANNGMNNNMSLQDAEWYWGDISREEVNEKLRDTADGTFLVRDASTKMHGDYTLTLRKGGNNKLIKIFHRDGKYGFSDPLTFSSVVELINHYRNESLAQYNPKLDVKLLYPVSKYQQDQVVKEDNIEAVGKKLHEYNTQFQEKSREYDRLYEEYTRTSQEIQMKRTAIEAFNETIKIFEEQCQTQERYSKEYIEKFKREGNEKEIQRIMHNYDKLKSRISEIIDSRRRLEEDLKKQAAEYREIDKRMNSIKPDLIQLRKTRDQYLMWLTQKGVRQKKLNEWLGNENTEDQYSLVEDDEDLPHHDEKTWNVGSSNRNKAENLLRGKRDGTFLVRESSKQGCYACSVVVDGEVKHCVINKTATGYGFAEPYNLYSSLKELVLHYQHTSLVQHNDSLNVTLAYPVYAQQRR

As to `CC(=O)Nc1cn2nc(-c3cnc(Cl)c(NS(=O)(=O)c4ccc(F)cc4Cl)c3)ccc2n1` [Example 40, N-(6-(6-Chloro-5-(2-chloro-4-fluorophenylsulfonamido)pyridin-3-yl)imidazo[1,2-b]pyridazin-2-yl)acetamide], the IC50 in assay [1] is 21 nM; in assay [2] it was 55 nM; at PI3Kα, 5 nM.

On to `CC(=O)Nc1cn2nc(-c3cnc(Cl)c(NS(=O)(=O)N4CCOCC4)c3)ccc2n1` [Example 41, N-(6-(6-Chloro-5-(morpholine-4-sulfonamido)pyridin-3-yl)imidazo[1,2-b]pyridazin-2-yl)acetamide], for which the IC50 in assay [1] worked out at 47 nM; in assay [2] it was 75 nM; at PI3Kα, 6 nM.
